Experimental findings from US11613542B2, “Sulfonylureas and sulfonylthioureas as NLRP3 inhibitors” (Inflazome Limited, priority 2017, dated 2023) are described below.

Structures are written as SMILES. Counter-ions that a name gives are not always drawn.

Data set [1] deals with T1, NLRP3 (Homo sapiens, UniProt Q96P20). Briefly: THP-1 cells pyroptosis assay. As to conditions: THP-1 cells, 1.0 μg/ml LPS, compound 3 hrs, nigericin 5 μM 1 hr, resazurin readout; read-out: THP IC50. The format is cell-based. The arrangement: Seed THP-1 cells (25,000 cells/well) containing 1.0 μg/ml LPS; host or cells: THP-1 cells, LPS-primed, nigericin-stimulated. The source says:
NLRP and Pyroptosis It is well established that the activation of NLRP3 leads to cell pyroptosis and this feature plays an important part in the manifestation of clinical disease (Yan-gang Liu et al., Cell Death &Disease, 2017, 8(2), e2579; Alexander Wree et al., Hepatology, 2014, 59(3), 898-910; Alex Baldwin et al., Journal of Medicinal Chemistry, 2016, 59(5), 1691-171; Ema Ozaki et al., Journal of Inflammation Research, 2015, 8, 15-27; Zhen Xie & Gang Zhao, Neuroimmunology Neuroinflammation, 2014, 1(2), 60-65; Mattia Cocco et al., Journal of Medicinal Chemistry, 2014, 57(24), 10366-10382; T. Satoh et al., Cell Death &Disease, 2013, 4, e644). Therefore, it is anticipated that inhibitors of NLRP3 will block pyroptosis, as well as the release of pro-inflammatory cytokines (e.g. […]) from the cell. THP-1 Cells: Culture and Preparation THP-1 cells (ATCC #TIB-202) were grown in RPMI containing L-glutamine (Gibco #11835) supplemented with imM sodium pyruvate (Sigma #S8636) and penicillin (100 units/ml)/streptomycin (0.1 mg/ml) (Sigma #P4333) in 10% Fetal Bovine Serum (FBS) (Sigma #Fo804). The cells were routinely passaged and grown to confluency (˜10^6 cells/ml). On the day of the experiment, THP-1 cells were harvested and resuspended into RPMI medium (without FBS). The cells were then counted and viability (>90%) checked by Trypan blue (Sigma #T8154). Appropriate dilutions were made to give a concentration of 625,000 cells/ml. To this diluted cell solution was added LPS (Sigma #L4524) to give a […] Final Assay Concentration (FAC). 40 μl of the final preparation was aliquoted into each well of a 96-well plate. The plate thus prepared was used for compound screening. THP-1 Cells Pyroptosis Assay The following method step-by-step assay was followed for compound screening. • 1. Seed THP-1 cells (25,000 cells/well) containing 1.0 μg/ml LPS in 40 μl of RPMI medium (without FBS) in 96-well, black walled, clear bottom cell culture plates coated with poly-D-lysine (VWR #734-0317) • 2. Add […] compound (8 points half-log dilution, with 10 μM top dose) or vehicle (DMSO 0.1% FAC) to the appropriate wells • 3. […] Add 5 μl nigericin (Sigma #N7143) (FAC 5 μM) to all wells • 5. […] At the end of the incubation period, spin plates at 300 xg for 3 mins and remove supernatant • 7. Then add 50 μl of resazurin (Sigma #R7017) (FAC 100μ M resazurin in RPMI medium without FBS) and incubate plates for a further 1-2 hrs at 37° C. and 5% CO2 • 8. Plates were read in an Envision reader at Ex 560 nm and Em 590 nm • 9. IC50 data is fitted to a non-linear regression equation (log inhibitor vs response-variable slope 4-parameters) [table]
On the technique in general: Resazurin is reduced to fluorescent resorufin, in cell work by metabolically active cells.

The target in data set [2] is T1, NLRP3. Briefly: Human whole blood IL1β release assay. The format is cell-based. Details: Human whole blood in Li-heparin tubes was obtained from healthy donors; from tissue; host or cells: human whole blood from healthy donors, LPS-primed, nigericin-stimulated. The settings on record: human whole blood, 1 μg/ml LPS, compound 3 hrs, nigericin 10 μM 1 hr, IL-1β AlphaLisa; read-out: HWB IC50. The method, then: Human Whole Blood IL1β Release Assay
For systemic delivery, the ability to inhibit NLRP3 when the compounds are present within the bloodstream is of great importance. For this reason, the NLRP3 inhibitory activity of a number of compounds in human whole blood was investigated in accordance with the following protocol.
Human whole blood in Li-heparin tubes was obtained from healthy donors from a volunteer donor panel. • 1. Plate out 80 μl of whole blood containing 1 μg/ml of LPS in 96-well, clear bottom cell culture plate (Corning #3585) • 2. Add 10 μl compound (8 points half-log dilution with 10 μM top dose) or vehicle (DMSO 0.1% FAC) to the appropriate wells • 3. Incubate for 3 hrs at 37° C., 5% CO2 • 4. Add 10 μl Nigericin (Sigma #N7143) (10 μM FAC) to all wells • 5. Incubate for 1 hr at 37° C., 5% CO2 • 6. At the end of the incubation period, spin plates at 300 xg for 5 mins to pellet cells and remove 20 μl of supernatant and add to 96-well v-bottom plates for IL-1β analysis (note: these plates containing the supernatants can be stored at −80° C. to be analysed at a later date) • 7. IL-1β was measured according to the manufacturer protocol (Perkin Elmer-AlphaLisa IL-1 Kit AL220F-5000) • 8. IC50 data is fitted to a non-linear regression equation (log inhibitor vs response-variable slope 4-parameters)
(In general: In Alpha technology, singlet oxygen from a donor bead excites a nearby acceptor bead.)

Data set [3] can be described thus: Pharmacokinetic parameters in male Sprague Dawley rats (intravenous and oral administration). The class given is in vivo. The settings on record: intravenous administration, rat plasma; dose per compound (mg/kg). The method, then: Pharmacokinetic parameters were determined in male Sprague Dawley rats (Charles River, UK, 250-350 g; or Vital River Laboratory Animal Technology Co Ltd, Beijing, China, 7-9 weeks old). Animals were individually housed during the study and maintained under a 12 h light/dark cycle. Animals had free access to food and water except that some orally dosed animals were food deprived overnight prior to the study.
For intravenous administration, compounds were formulated as a solution in water or DMSO:PBS [10:90] in 2 mL/kg dosing volume and administered via tail vein. For oral administration, compounds were formulated as a solution in water or DMSO:water [10:90] in 5 mL/kg dosing volume and administered orally.
Serial blood samples (about 120-300 μL) were taken from each animal at each of 8 time-points post dose (0.083, 0.25, 0.5, 1, 2, 4, 8 and 24 h) or at each of 12 time-points post dose (0.03, 0.1, 0.17, 0.25, 0.5, 1, 2, 4, 6, 8,12 and 24 h) or pre-dose and at each of 9 time-points post dose (0.25, 0.5, 1, 2, 4, 6, 8, 12 and 24 h). Samples were held on ice for no longer than 30 minutes before centrifugation (10,000 rpm (8,385 g) for 3 minutes; or 5,696 rpm (3,000 g) for 15 minutes) for plasma generation. Plasma was frozen on dry ice prior to bioanalysis. PK parameters were generated from LC-MS/MS data using Dotmatics or Phoenix WinNonlin 6.3 software.

T1 sequence (Q96P20 whole entry): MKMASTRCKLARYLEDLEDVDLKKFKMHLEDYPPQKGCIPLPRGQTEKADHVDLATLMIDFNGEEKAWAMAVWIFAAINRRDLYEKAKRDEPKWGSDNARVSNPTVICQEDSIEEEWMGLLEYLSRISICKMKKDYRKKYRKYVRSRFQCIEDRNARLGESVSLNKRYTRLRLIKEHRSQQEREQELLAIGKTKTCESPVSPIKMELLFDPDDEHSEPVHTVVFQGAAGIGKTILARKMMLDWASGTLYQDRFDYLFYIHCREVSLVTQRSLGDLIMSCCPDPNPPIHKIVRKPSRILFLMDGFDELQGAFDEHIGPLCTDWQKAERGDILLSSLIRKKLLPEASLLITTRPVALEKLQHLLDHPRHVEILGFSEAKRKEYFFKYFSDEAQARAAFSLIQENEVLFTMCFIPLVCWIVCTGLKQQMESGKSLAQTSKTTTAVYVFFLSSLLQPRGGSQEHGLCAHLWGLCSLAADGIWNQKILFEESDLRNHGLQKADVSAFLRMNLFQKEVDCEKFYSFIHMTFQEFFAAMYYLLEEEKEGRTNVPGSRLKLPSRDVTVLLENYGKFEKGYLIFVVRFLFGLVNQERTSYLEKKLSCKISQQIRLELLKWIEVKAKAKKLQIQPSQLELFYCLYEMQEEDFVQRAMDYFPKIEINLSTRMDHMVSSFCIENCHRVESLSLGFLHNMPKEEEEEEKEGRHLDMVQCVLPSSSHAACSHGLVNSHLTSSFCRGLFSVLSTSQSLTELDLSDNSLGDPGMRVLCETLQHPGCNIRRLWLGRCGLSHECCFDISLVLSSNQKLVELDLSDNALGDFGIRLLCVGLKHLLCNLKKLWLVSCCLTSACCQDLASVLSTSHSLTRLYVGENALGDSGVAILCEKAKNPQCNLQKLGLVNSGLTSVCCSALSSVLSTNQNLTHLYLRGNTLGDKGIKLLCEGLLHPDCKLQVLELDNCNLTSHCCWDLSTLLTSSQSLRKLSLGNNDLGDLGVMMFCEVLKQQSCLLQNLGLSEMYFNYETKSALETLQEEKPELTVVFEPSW

By IC50 is commonly meant the concentration needed to halve the response being measured. Consider `CN(C)C(=O)Cn1ccc(S(=O)(=O)NC(=O)Nc2c3c(cc4c2CCC4)CCC3)n1` [Example 1, 2-(3-(N-((1,2,3,5,6,7-Hexahydro-s-indacen-4-yl)carbamoyl)sulfamoyl)-1H-pyrazol-1-yl)-N,N-dimethylacetamide, sodium salt], for which the half-inhibitory concentration (IC50) is < 0.64 µM in data set [1] and < 10 µM in data set [2]. Taken in the same sequence, the figures for `CNC(=O)Cn1ccc(S(=O)(=O)NC(=O)Nc2c3c(cc4c2CCC4)CCC3)n1` [Example 2, 2-(3-(N-((1,2,3,5,6,7-Hexahydro-s-indacen-4-yl)carbamoyl)sulfamoyl)-1H-pyrazol-1-yl)-N-methylacetamide] were < 0.64 µM and < 3.2 µM. Turning to `O=C(Nc1c2c(cc3c1CCC3)CCC2)NS(=O)(=O)c1ccn(CCN2CCCC2)n1` [Example 3, N-((1,2,3,5,6,7-Hexahydro-s-indacen-4-yl)carbamoyl)-1-(2-(pyrrolidin-1-yl)ethyl)-1H-pyrazole-3-sulfonamide, sodium salt], the results for the 50% inhibitory concentration (IC50) in data set [1] and in data set [2] were < 0.64 µM and < 1.6 µM, respectively. Take `CN(C)C1(Cn2ccc(S(=O)(=O)NC(=O)Nc3c4c(cc5c3CCC5)CCC4)n2)CC1` [Example 11, 1-((1-(Dimethylamino)cyclopropyl)methyl)-N-((1,2,3,5,6,7-hexahydro-s-indacen-4-yl)carbamoyl)-1H-pyrazole-3-sulfonamide]: the figures for the IC50 in data set [1] and in data set [2] were < 0.64 µM and < 1.6 µM, respectively. With `CN1CC(n2ccc(S(=O)(=O)NC(=O)Nc3c4c(cc5c3CCC5)CCC4)n2)C1` [Example 12, N-((1,2,3,5,6,7-Hexahydro-s-indacen-4-yl)carbamoyl)-1-(1-methylazetidin-3-yl)-1H-pyrazole-3-sulfonamide], the half-inhibitory concentration (IC50) was < 2.56 µM in data set [1] and < 1.6 µM in data set [2]. Usually AUC stands for concentration integrated over time. Low readings indicate low exposure, high ones high exposure. In data set [3], `CN(CCO)Cc1cc(S(=O)(=O)NC(=O)Nc2c3c(cc4c2CCC4)CCC3)nn1C` [Example 124, N-((1,2,3,5,6,7-Hexahydro-s-indacen-4-yl)carbamoyl)-5-(((2-hydroxyethyl)(methyl)amino)methyl)-1-methyl-1H-pyrazole-3-sulfonamide] registered an exposure (AUC) of 2067.0 ng·h/mL, a Cl of 8.1 mL/min/kg, a T1/2 of 14.2 h and a Vdss of 1.9 L/kg. The half-inhibitory concentration (IC50) in data set [1] was < 0.16 µM. For the molecule `Cn1nc(S(=O)(=O)NC(=O)Nc2c3c(cc4c2CCC4)CCC3)cc1C(=O)N1CC(F)C1` [Example 161, 5-(3-Fluoroazetidine-1-carbonyl)-N-((1,2,3,5,6,7-hexahydro-s-indacen-4-yl)carbamoyl)-1-methyl-1H-pyrazole-3-sulfonamide, partial ammonium salt], the IC50 in data set [1] was < 2.56 µM. For the molecule `CC(C)c1cccc(C(C)C)c1NC(=O)NS(=O)(=O)c1cc(C(=O)N2CCCC2)n(C)n1` [Example 163, N-((2,6-Diisopropylphenyl)carbamoyl)-1-methyl-5-(pyrrolidine-1-carbonyl)-1H-pyrazole-3-sulfonamide], the IC50 in data set [1] was < 2.56 µM. Regarding `CNC(=O)c1cc(S(=O)(=O)NC(=O)Nc2c3c(cc4c2CCC4)CCC3)nn1C` [Example 166, 3-(N-((1,2,3,5,6,7-Hexahydro-s-indacen-4-yl)carbamoyl)sulfamoyl)-N,1-dimethyl-1H-pyrazole-5-carboxamide], in data set [1], the IC50 was < 2.56 µM.

Turning to `CC(C)c1cccc(C(C)C)c1NC(=O)NS(=O)(=O)c1cc(C(=O)N(C)CCO)n(C)n1` [Example 173, 3-(N-((2,6-Diisopropylphenyl)carbamoyl)sulfamoyl)-N-(2-hydroxyethyl)-N,1-dimethyl-1H-pyrazole-5-carboxamide], in data set [1], the IC50 was < 2.56 µM. For `Cn1nc(S(=O)(=O)NC(=O)Nc2c3c(cc4c2CCC4)CCC3)cc1C(=O)NCCO` [Example 174, 3-(N-((1,2,3,5,6,7-Hexahydro-s-indacen-4-yl)carbamoyl)sulfamoyl)-N-(2-hydroxyethyl)-1-methyl-1H-pyrazole-5-carboxamide, partial ammonium salt], the IC50 in data set [1] was < 10 µM.

Turning to `COCCNC(=O)c1cc(S(=O)(=O)NC(=O)Nc2c3c(cc4c2CCC4)CCC3)nn1C` [Example 175, 3-(N-((1,2,3,5,6,7-Hexahydro-s-indacen-4-yl)carbamoyl)sulfamoyl)-N-(2-methoxyethyl)-1-methyl-1H-pyrazole-5-carboxamide, partial ammonium salt], the IC50 in data set [1] is < 10 µM. Regarding `CN(C)CCn1cc(S(=O)(=O)NC(=O)Nc2c3c(cc4c2CCC4)CCC3)cn1` [Example 182, 1-(2-(Dimethylamino)ethyl)-N-((1,2,3,5,6,7-hexahydro-s-indacen-4-yl)carbamoyl)-1H-pyrazole-4-sulfonamide], the half-inhibitory concentration (IC50) in data set [1] is < 2.56 µM.

On to `CC(C)c1cc(Cl)cc(C(C)C)c1NC(=O)NS(=O)(=O)c1ccn(C(C)(C)CN(C)C)n1` [Example 200, N-((4-Chloro-2,6-diisopropylphenyl)carbamoyl)-1-(1-(dimethylamino)-2-methylpropan-2-yl)-1H-pyrazole-3-sulfonamide], for which the half-maximal inhibitory concentration (IC50) in data set [1] was < 2.56 µM.

With `CC(C)c1cc(F)cc(C(C)C)c1NC(=O)NS(=O)(=O)c1ccn(C(C)(C)CN(C)C)n1` [Example 201, 1-(1-(Dimethylamino)-2-methylpropan-2-yl)-N-((4-fluoro-2,6-diisopropylphenyl)carbamoyl)-1H-pyrazole-3-sulfonamide], the half-inhibitory concentration (IC50) in data set [1] was < 2.56 µM.

For the molecule `C[C@@H](CN(C)C)n1ccc(S(=O)(=O)NC(=O)Nc2c3c(cc4c2CCC4)CCC3)n1` [Example 203, (S)-1-(1-(Dimethylamino)propan-2-yl)-N-((1,2,3,5,6,7-hexahydro-s-indacen-4-yl)carbamoyl)-1H-pyrazole-3-sulfonamide], in data set [1], the IC50 was < 0.64 µM.
